Measurements reported in patent US20080014255A1, “Liposome bonded with antibody and polyalkylene glycol” (Mitsubishi Chemical Corporation, priority 1999, published 2008).

Experiment: Pharmacokinetic test: plasma DXR concentration after tail vein administration of liposomes
Format: in vivo, Male BALB/cAjcl mice
Conditions: free (leaked) DXR
Protocol: Male BALB/cAjcl mice (6-week old) were used in experiments. A mouse group consisting of four mice was used for each of the liposomes, and one untreated mouse was used as a blank in the experiment. The liposomes were administered into the tail vein at the dose of 2 mg/kg as DXR. After 16 hours from the administration, a Nembutal injection solution (Dainippon Pharmaceutical Co., Ltd.) was intraperitoneally administered to the mice and thoracotomy was performed under anesthetization to collect blood. Blood plasma was separated and used for analysis of DXR.
100 μL of the plasma was added with 1 mL of 0.3 M hydrochloric acid/50% ethanol (hydrochloric ethanol) and heated at 60° C. for 10 minutes to extract DXR. The extract was cooled to 4° C. and centrifuged at 15,000 rpm for 10 minutes to collect a supernatant. The sample was diluted 4 times with hydrochloric ethanol and its fluorescence was measured at a fluorescence wavelength of 590 nm with an excitation wavelength of 490 nm. A calibration curve was prepared by using DXR diluted with hydrochloric ethanol to known concentrations and used in quantification of DXR in plasma. The recovery of DXR from the mouse plasma was 95 to 98% in a range of […] of DXR (Reference: Cancer Res., 47, 4471, 1987).
DXR in blood plasma was quantified in the same manner as in Example 2.

disappearance from blood of DXR leaked from the liposomes: rapidly disappear from blood
SMILES: COc1cccc2c1C(=O)c1c(O)c3c(c(O)c1C2=O)C[C@@](O)(C(=O)CO)C[C@@H]3O[C@H]1C[C@H](N)[C@H](O)[C@H](C)O1 [DXR, doxorubicin]
